{"source": "patent US6787564B2", "about": "“Optically active clausenamides, process of the preparation thereof, pharmaceutical composition containing the same and their medical use” (Institute of Materia Medica, Chinese Academy of Medical …, priority 2002, dated 2004)", "key": {"A β 25-35 treated rats": {"tested_on": "A β 25-35 treated rats", "assay": "Morris water maze, A β 25-35 induced impairment of memory", "assay_type": "in vivo", "description": "Pathological features of Alzheimer's disease (AD) include extensive neuronal loss and the presence of numerous neurofibrillary tangles and senile plaques in the brain. The senile plaques contain amyloid fibrils derived from a 39-43 amino acids peptide referred to as β-amyloid or A β which can produce neurotoxicity. A β 25-35 poccesses the similar neurotoxicity and ability of self-aggregation as A β 1-42. Administrated aggregated A β 25-35 into rat's lateral cerebral ventricle induced memory impairment in Morris water maze.\nWith increasing of training days, the initial heading angle became small. On the 3th day, the initial heading angle of A β group was larger than control. […] (see Tab.3)\nThere are four strategies for finding platform in Morris water maze: random, circle, taxis and line. In the beginning of training the search strategies for finding target is mainly circle and random, with the increasing of training, the percentage of the two strategies declined gradually, Beginning from the 3th day, declining speed in control and (−) clausenamide group was faster than A β,(+) clausenamide and piracetam groups."}, "[1]": {"tested_on": "Bax α high expressing PC12 cells", "assay": "mitochondrial membrane potential in 6-OHDA treated Bax α high expressing PC12 cells", "assay_type": "cell-based", "conditions": "6-OHDA 12 hours, without drug 24.6", "description": "Obviously, the increased mitochondrial membrane potential is considered to be one of the antiapoptotic mechanisms of (−) Clausenamide. The increased mitochondrial complex I and complex IV activity may account for the increased mitochondrial membrane potential. The Bax α protein may induce apoptosis by affecting enzyme activities of the mitochondrial electron transfer chain. And the mitochondrial complex I and complex IV could be the targeting points of the Bax α protein."}, "zif/268": {"tested_on": "zif/268", "assay": "protein biosyntheses of mice brain and zif/268 expression", "conditions": "mouse, in vivo"}, "Ach, ChAT": {"tested_on": "Ach, ChAT", "assay": "Ach content and ChAT activity in cortex, hippocampus and striatum", "conditions": "in vivo"}, "[2]": {"tested_on": "dentate gyrus granule cells", "assay": "basal synaptic transmission / LTP in dentate gyrus of hippocampus in anesthetized rats (population spike amplitude)", "assay_type": "in vivo", "description": "Drugs or vehicle injection were delivered via cannula in the lateral cerebral ventricle at final concentration of 2×10^−6 mol/L. The population spike (PS) amplitude was employed as an indication of the level of excitation of the granular cell population in the dentate gyrus. To obtain this measurement, an evoked response was generated in the dentate gyrus granule cell layer by stimulating the pp at low freguency (0.033 Hz) with. single square wave pulses of 0.15 ms duration The LTP formation must accord the following creteria: The PS amplitude increased is over 30% and this high PS amplitude can persist for 40 min."}, "animals": {"tested_on": "animals", "assay": "memory in water maze test", "assay_type": "in vivo", "conditions": "10 mg/kg", "description": "This invention used one trial avoidance task—step-down and step-through tests and water maze to compare the improving memorial effects of (±), (−) clausenamide. The drugs were given orally once to animals before experiment in step-down and step-through tests. The water maze test lasted for 5 days in succession. The results were expressed as latency and errors number."}, "calcineurin": {"tested_on": "calcineurin", "assay": "calcineurin activity in the cortical and hippocampal tissue", "conditions": "without HFS; Nimodipine 2 nmol; mean ± S.D., n = 5; control 7.8 ± 0.6", "source_text": "The rats were anaesthetized with urethane carbonate. The recording and stimulating electrodes were made from Teflon coated stainless steel wires. The bipolar stimulating electrode was sterotaxically placed in the entorhinal cortex to stimulate the perforant path, and the evoked potential was extracellular recorded from the dentate gyrus granule cell layer of ipsilateral. The population spike (PS) is served as an indication of granule cell's excitation. Long term potentiation (LTP) was induced by a 200 Hz high frequency stimulation 5×single square wave pulses of 0.2 ms duration. The drug or vehicle (DMSO) were injected into lateral cerebral ventricle in a 5 μl volume over a 5 min period via a Hamilton syringe."}, "[3]": {"tested_on": "Bax α high expressing PC12 cells", "assay": "6-OHDA induced apoptosis of Bax α high expressing PC12 cells (TUNEL, flowcytometry)", "assay_type": "cell-based", "conditions": "6-OHDA 100 μM, without drug 49.9%", "description": "1. The Construction of pcDNA3-bax α Plasmid and its Transfection into the PC12 Cell Line\nIn order to increase the expression level of the transfected gene, we first cut some of the 3′ polyA signal sequences from the Bax α cDNA and constructed the intermediate plasmid pBluescript SK-Bax α (pA). Then cut the Bax α cDNA from the intermediate plasmid, religate with the eukaryotic expression plasmid pcDNA3 and obtained the pcDNA3-Bax α recombinant plasmid. […] The recombinated Bax α has −50 bp of 5′ untranslated region(5′-UTR), 576 bp of open reading frame (ORF), and 137 bp of 3′ untranslated region (3′-UTR). The 5′ methionine translation initiation region has the Kozak consensus sequences. So this plasmid may be used to transform the Bax α gene into the mammalian cells and guarantees highly expression of Bax α by using its strong promoter.\nThe Lipofectamine transfecting method was used to transfect the pcDNA3-Bax α into the PC12 cell line. G-418 was used to select the resistant cell clones. […] This experiment successfully produced the Bax α high expressing PC12 cell line.\nUnder normal condition, the Bax α high expressing cells had the same natural apoptosis rate with the neo transfected PC12 cells."}}, "data": [{"smiles": "CN1C(=O)[C@@H](O)[C@H](c2ccccc2)[C@@H]1[C@@H](O)c1ccccc1", "note": "[(−)clausenamide, 3S, 4R, 5R, 6S (−) Levoclausenamide]", "values": [{"measurement": "spatial learning and memory impairment induced by aggregated A β 25-35", "setting": "A β 25-35 treated rats; 8,40 mg·kg^−1 daily for 8 days from the 8th day after icv 15 nmol aggregated A β 25-35", "value": "significantly ameliorated"}, {"measurement": "initial heading angle on the 3th day (in words)", "setting": "A β 25-35 treated rats; (−),(+) clausenamide 8 and 40 mg.kg^−1, piracetam 400 mg·kg^−1, vs A β group", "value": "significantly reduced the angle"}, {"measurement": "latency for finding the platform, 3th to 5th day", "setting": "A β 25-35 treated rats; (−),(+) clausenamide 8 and 40 mg·kg^−1, piracetam 400 mg.kg^−1, vs A β group", "value": "shorter than that of A β group"}, {"measurement": "initial heading angle, training day 1", "setting": "A β 25-35 treated rats; A β 25-35 + drug at 8 mg/kg", "value": "89.7 ± 29.4"}, {"measurement": "initial heading angle, training day 2", "setting": "A β 25-35 treated rats; A β 25-35 + drug at 8 mg/kg", "value": "72.3 ± 19.8"}, {"measurement": "initial heading angle, training day 3", "setting": "A β 25-35 treated rats; A β 25-35 + drug at 8 mg/kg", "value": "46.5 ± 21.2"}, {"measurement": "initial heading angle, training day 4", "setting": "A β 25-35 treated rats; A β 25-35 + drug at 8 mg/kg", "value": "30.4 ± 14.8"}, {"measurement": "initial heading angle, training day 5", "setting": "A β 25-35 treated rats; A β 25-35 + drug at 8 mg/kg", "value": "17.6 ± 9.5"}, {"measurement": "initial heading angle, training day 1", "setting": "A β 25-35 treated rats; A β 25-35 + drug at 40 mg/kg", "value": "101.5 ± 24.3"}, {"measurement": "initial heading angle, training day 2", "setting": "A β 25-35 treated rats; A β 25-35 + drug at 40 mg/kg", "value": "83.5 ± 21.8"}, {"measurement": "initial heading angle, training day 3", "setting": "A β 25-35 treated rats; A β 25-35 + drug at 40 mg/kg", "value": "51.2 ± 18.7"}, {"measurement": "initial heading angle, training day 4", "setting": "A β 25-35 treated rats; A β 25-35 + drug at 40 mg/kg", "value": "28.4 ± 13.2"}, {"measurement": "initial heading angle, training day 5", "setting": "A β 25-35 treated rats; A β 25-35 + drug at 40 mg/kg", "value": "20.7 ± 8.7"}, {"measurement": "appearance of taxis and line search strategies", "setting": "A β 25-35 treated rats; from the 3th training day", "value": "increased markedly"}, {"measurement": "mitochondrial membrane potential", "setting": "[1]; 10^−6M", "value": "56.0±5.0"}, {"measurement": "mitochondrial membrane potential", "setting": "[1]; 10^−7M", "value": "30.7±3.3"}, {"measurement": "protein biosyntheses of mice brain", "setting": "zif/268", "value": "increased"}, {"measurement": "zif/268 mRNA and protein expression", "setting": "zif/268", "value": "promoted"}, {"measurement": "Ach content in cortex, hippocampus and striatum", "setting": "Ach, ChAT", "value": "increased"}, {"measurement": "ChAT activity in cortex, hippocampus and striatum", "setting": "Ach, ChAT", "value": "increased"}, {"measurement": "increase of PS amplitude in comparison with vehicle group", "setting": "[2]; 30-60 min after drug administration", "value": "38.9-63.4%"}, {"measurement": "LTP formation (PS amplitude increase over 30% persisting 40 min)", "setting": "[2]; (−) at 2×10^−6 mol/L, (±) up to 5 times that", "value": "induce LTP formation"}, {"measurement": "PS % at 15′, in comparison with before drug", "setting": "[2]; icv, 2×10^−6 mol/L", "value": 19.8, "unit": "%"}, {"measurement": "PS % at 15′, in comparison with control (vehicle) group", "setting": "[2]; icv, 2×10^−6 mol/L", "value": 10.0, "unit": "%"}, {"measurement": "PS % at 30′, in comparison with before drug", "setting": "[2]; icv, 2×10^−6 mol/L", "value": 48.5, "unit": "%"}, {"measurement": "PS % at 30′, in comparison with control (vehicle) group", "setting": "[2]; icv, 2×10^−6 mol/L", "value": 38.9, "unit": "%"}, {"measurement": "PS % at 45′, in comparison with before drug", "setting": "[2]; icv, 2×10^−6 mol/L", "value": 66.3, "unit": "%"}, {"measurement": "PS % at 45′, in comparison with control (vehicle) group", "setting": "[2]; icv, 2×10^−6 mol/L", "value": 52.7, "unit": "%"}, {"measurement": "PS % at 60′, in comparison with before drug", "setting": "[2]; icv, 2×10^−6 mol/L", "value": 81.2, "unit": "%"}, {"measurement": "PS % at 60′, in comparison with control (vehicle) group", "setting": "[2]; icv, 2×10^−6 mol/L", "value": 63.4, "unit": "%"}, {"measurement": "PS amplitude 30′ after drug", "setting": "[2]; icv, 2×10^−6 mol/L, control 108 ± 7", "value": "150 ± 11"}, {"measurement": "PS amplitude 45′ after drug", "setting": "[2]; icv, 2×10^−6 mol/L, control 110 ± 10", "value": "168 ± 25"}, {"measurement": "PS amplitude 60′ after drug", "setting": "[2]; icv, 2×10^−6 mol/L, control 112 ± 7", "value": "183 ± 30"}, {"measurement": "PS amplitude 15′ after drug", "setting": "[2]; icv, final concentration 2×10^−6 mol/L, control 110 ± 9", "value": "121 ± 9"}, {"measurement": "Lalencies reaching platform, 3rd day", "setting": "animals", "value": "17.4 ± 10.9", "unit": "s"}, {"measurement": "Lalencies reaching platform, 4th day", "setting": "animals", "value": "12.1 ± 6.9", "unit": "s"}, {"measurement": "Lalencies reaching platform, Second day", "setting": "animals", "value": "28.7 ± 35.2", "unit": "s"}, {"measurement": "calcineurin activity, Hippocampal tissue", "setting": "calcineurin", "value": "10.4 ± 0.5 (μmol Pi)/hr/μ g protein"}, {"measurement": "apoptotic rate", "setting": "[3]; 10^−5M", "value": 9.5, "unit": "%"}, {"measurement": "apoptotic rate", "setting": "[3]; 10^−6M", "value": 28.1, "unit": "%"}, {"measurement": "apoptotic rate", "setting": "[3]; 10^−7M", "value": 36.23, "unit": "%"}]}]}
